Assays:
Settings in all cases: exposure time: 72 h
E28 [1] = patient-derived glioblastoma stem cells of classical subtype; test: surviving fraction (nuclei count normalised to DMSO); higher = more cells surviving (less toxic)
E31 [2] = patient-derived glioblastoma stem cells of proneural subtype; test: as above
E13 [3] = patient-derived glioblastoma stem cells of classical subtype; test: as above
E21 [4] = patient-derived glioblastoma stem cells of mesenchymal subtype; test: as above
FT3469 [5] = normal neural stem cell line; test: as above
E57 [6] = patient-derived glioblastoma stem cells of mesenchymal subtype; test: as above
E34 [7] = patient-derived glioblastoma stem cells of proneural subtype; test: as above
E28 [8] = test: phenotypic distance (Euclidean, principal components) from DMSO controls (arbitrary units); higher = stronger morphological change
E31 [9] = test: as above
E13 [10] = test: as above
E21 [11] = test: as above
FT3469 [12] = test: as above
E57 [13] = test: as above
E34 [14] = test: as above
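Wherever phenotypic distance (Euclidean, principal components) from DMSO controls is given: cell Painting imaging in 384-well plates, CellProfiler features reduced to at least 20 principal components, Euclidean distance versus same-plate DMSO vehicle wells (0.1% v/v), median over six images per well.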
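Wherever surviving fraction (nuclei count normalised to DMSO) is given: nuclei counted by high-content imaging of Hoechst-stained cells in laminin-coated 384-well plates, relative to 0.1% DMSO vehicle wells, with staurosporine as cell-death control.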

CC(=O)OC[C@H]1O[C@@H]([S-])[C@H](OC(C)=O)[C@@H](OC(C)=O)[C@@H]1OC(C)=O.CCP(CC)CC.[Au+] [Auranofin]
Settings | phenotypic distance | surviving fraction
E13 [3], 4.1 nM | – | 0.841
E13 [3], 12.3 nM | – | 1.05
E13 [3], 37 nM | – | 1.04
E13 [3], 111.1 nM | – | 1.09
E13 [3], 333.3 nM | – | 0.968
E13 [3], 1000 nM | – | 0.851
E13 [3], 3000 nM | – | 0.227
E13 [10], 4.1 nM | 0.698 | –
E13 [10], 12.3 nM | 0.74 | –
E13 [10], 37 nM | 0.381 | –
E13 [10], 111.1 nM | 0.629 | –
E13 [10], 333.3 nM | 0.569 | –
E13 [10], 1000 nM | 0.919 | –
E13 [10], 3000 nM | 5.8 | –
E21 [4], 4.1 nM | – | 0.997
E21 [4], 12.3 nM | – | 1
E21 [4], 37 nM | – | 1.02
E21 [4], 111.1 nM | – | 0.947
E21 [4], 333.3 nM | – | 0.979
E21 [4], 1000 nM | – | 0.84
E21 [4], 3000 nM | – | 0.255
E21 [11], 4.1 nM | 0.692 | –
E21 [11], 12.3 nM | 0.512 | –
E21 [11], 37 nM | 1.07 | –
E21 [11], 111.1 nM | 0.632 | –
E21 [11], 333.3 nM | 1.15 | –
E21 [11], 1000 nM | 2.27 | –
E21 [11], 3000 nM | 5.54 | –
E28 [1], 4.1 nM | – | 1.1
E28 [1], 12.3 nM | – | 0.95
E28 [1], 37 nM | – | 0.888
E28 [1], 111.1 nM | – | 0.581
E28 [1], 333.3 nM | – | 0.418
E28 [1], 1000 nM | – | 0.177
E28 [1], 3000 nM | – | 0.00427
E28 [8], 4.1 nM | 1.07 | –
E28 [8], 12.3 nM | 0.679 | –
E28 [8], 37 nM | 0.773 | –
E28 [8], 111.1 nM | 1.25 | –
E28 [8], 333.3 nM | 1.81 | –
E28 [8], 1000 nM | 2.9 | –
E28 [8], 3000 nM | 11.4 | –
E31 [2], 4.1 nM | – | 1.17
E31 [2], 12.3 nM | – | 0.911
E31 [2], 37 nM | – | 1.03
E31 [2], 111.1 nM | – | 1.13
E31 [2], 333.3 nM | – | 1.09
E31 [2], 1000 nM | – | 0.723
E31 [2], 3000 nM | – | 0.00651
E31 [9], 4.1 nM | 1.04 | –
E31 [9], 12.3 nM | 0.586 | –
E31 [9], 37 nM | 0.373 | –
E31 [9], 111.1 nM | 1.33 | –
E31 [9], 333.3 nM | 1.16 | –
E31 [9], 1000 nM | 1.4 | –
E31 [9], 3000 nM | 8.52 | –
E34 [7], 4.1 nM | – | 0.913
E34 [7], 12.3 nM | – | 1.08
E34 [7], 37 nM | – | 1.18
E34 [7], 111.1 nM | – | 1.01
E34 [7], 333.3 nM | – | 0.92
E34 [7], 1000 nM | – | 0.993
E34 [7], 3000 nM | – | 0.269
E34 [14], 4.1 nM | 0.444 | –
E34 [14], 12.3 nM | 0.588 | –
E34 [14], 37 nM | 1.03 | –
E34 [14], 111.1 nM | 0.434 | –
E34 [14], 333.3 nM | 1.04 | –
E34 [14], 1000 nM | 0.939 | –
E34 [14], 3000 nM | 5.66 | –
E57 [6], 4.1 nM | – | 0.985
E57 [6], 12.3 nM | – | 0.96
E57 [6], 37 nM | – | 1.12
E57 [6], 111.1 nM | – | 0.993
E57 [6], 333.3 nM | – | 0.966
E57 [6], 1000 nM | – | 0.884
E57 [6], 3000 nM | – | 0.0901
E57 [13], 4.1 nM | 0.808 | –
E57 [13], 12.3 nM | 0.759 | –
E57 [13], 37 nM | 0.726 | –
E57 [13], 111.1 nM | 0.677 | –
E57 [13], 333.3 nM | 1.12 | –
E57 [13], 1000 nM | 2.3 | –
E57 [13], 3000 nM | 9.6 | –
FT3469 [5], 4.1 nM | – | 1.13
FT3469 [5], 12.3 nM | – | 1.02
FT3469 [5], 37 nM | – | 0.955
FT3469 [5], 111.1 nM | – | 0.76
FT3469 [5], 333.3 nM | – | 0.898
FT3469 [5], 1000 nM | – | 0.909
FT3469 [5], 3000 nM | – | 0.0719
FT3469 [12], 4.1 nM | 0.766 | –
FT3469 [12], 12.3 nM | 0.505 | –
FT3469 [12], 37 nM | 0.606 | –
FT3469 [12], 111.1 nM | 1.02 | –
FT3469 [12], 333.3 nM | 0.835 | –
FT3469 [12], 1000 nM | 1.28 | –
FT3469 [12], 3000 nM | 5.55 | –

Nc1nc2n[nH]nc2c(=O)[nH]1 [Azaguanine-8]
Settings | phenotypic distance | surviving fraction
E13 [3], 4.1 nM | – | 0.918
E13 [3], 12.3 nM | – | 1.02
E13 [3], 37 nM | – | 1.08
E13 [3], 111.1 nM | – | 0.87
E13 [3], 333.3 nM | – | 0.559
E13 [3], 1000 nM | – | 0.581
E13 [3], 3000 nM | – | 0.307
E13 [10], 4.1 nM | 0.737 | –
E13 [10], 12.3 nM | 0.508 | –
E13 [10], 37 nM | 1.23 | –
E13 [10], 111.1 nM | 0.95 | –
E13 [10], 333.3 nM | 2.46 | –
E13 [10], 1000 nM | 2.82 | –
E13 [10], 3000 nM | 5.02 | –
E21 [4], 4.1 nM | – | 0.917
E21 [4], 12.3 nM | – | 1.06
E21 [4], 37 nM | – | 0.788
E21 [4], 111.1 nM | – | 0.68
E21 [4], 333.3 nM | – | 0.489
E21 [4], 1000 nM | – | 0.429
E21 [4], 3000 nM | – | 0.296
E21 [11], 4.1 nM | 0.646 | –
E21 [11], 12.3 nM | 1.28 | –
E21 [11], 37 nM | 1.04 | –
E21 [11], 111.1 nM | 1.87 | –
E21 [11], 333.3 nM | 3.3 | –
E21 [11], 1000 nM | 4.9 | –
E21 [11], 3000 nM | 7.15 | –
E28 [1], 4.1 nM | – | 1.08
E28 [1], 12.3 nM | – | 1.11
E28 [1], 37 nM | – | 1.14
E28 [1], 111.1 nM | – | 0.882
E28 [1], 333.3 nM | – | 0.664
E28 [1], 1000 nM | – | 0.574
E28 [1], 3000 nM | – | 0.292
E28 [8], 4.1 nM | 0.671 | –
E28 [8], 12.3 nM | 0.89 | –
E28 [8], 37 nM | 1 | –
E28 [8], 111.1 nM | 0.848 | –
E28 [8], 333.3 nM | 1.21 | –
E28 [8], 1000 nM | 1.81 | –
E28 [8], 3000 nM | 3.73 | –
E31 [2], 4.1 nM | – | 0.825
E31 [2], 12.3 nM | – | 0.941
E31 [2], 37 nM | – | 1.07
E31 [2], 111.1 nM | – | 0.654
E31 [2], 333.3 nM | – | 0.48
E31 [2], 1000 nM | – | 0.225
E31 [2], 3000 nM | – | 0.0814
E31 [9], 4.1 nM | 1.03 | –
E31 [9], 12.3 nM | 0.622 | –
E31 [9], 37 nM | 0.999 | –
E31 [9], 111.1 nM | 1.08 | –
E31 [9], 333.3 nM | 1.4 | –
E31 [9], 1000 nM | 2.35 | –
E31 [9], 3000 nM | 5.2 | –
E34 [7], 4.1 nM | – | 0.988
E34 [7], 12.3 nM | – | 0.839
E34 [7], 37 nM | – | 0.913
E34 [7], 111.1 nM | – | 0.939
E34 [7], 333.3 nM | – | 0.795
E34 [7], 1000 nM | – | 0.601
E34 [7], 3000 nM | – | 0.563
E34 [14], 4.1 nM | 0.455 | –
E34 [14], 12.3 nM | 0.707 | –
E34 [14], 37 nM | 0.662 | –
E34 [14], 111.1 nM | 0.809 | –
E34 [14], 333.3 nM | 1.12 | –
E34 [14], 1000 nM | 2.2 | –
E34 [14], 3000 nM | 3.18 | –
E57 [6], 4.1 nM | – | 1
E57 [6], 12.3 nM | – | 0.873
E57 [6], 37 nM | – | 0.831
E57 [6], 111.1 nM | – | 0.605
E57 [6], 333.3 nM | – | 0.459
E57 [6], 1000 nM | – | 0.271
E57 [6], 3000 nM | – | 0.22
E57 [13], 4.1 nM | 0.712 | –
E57 [13], 12.3 nM | 0.801 | –
E57 [13], 37 nM | 1.2 | –
E57 [13], 111.1 nM | 1.96 | –
E57 [13], 333.3 nM | 3.18 | –
E57 [13], 1000 nM | 5.55 | –
E57 [13], 3000 nM | 6.09 | –
FT3469 [5], 4.1 nM | – | 0.958
FT3469 [5], 12.3 nM | – | 1.15
FT3469 [5], 37 nM | – | 1.2
FT3469 [5], 111.1 nM | – | 0.987
FT3469 [5], 333.3 nM | – | 0.881
FT3469 [5], 1000 nM | – | 0.685
FT3469 [5], 3000 nM | – | 0.59
FT3469 [12], 4.1 nM | 0.821 | –
FT3469 [12], 12.3 nM | 1.13 | –
FT3469 [12], 37 nM | 0.941 | –
FT3469 [12], 111.1 nM | 1.28 | –
FT3469 [12], 333.3 nM | 1.37 | –
FT3469 [12], 1000 nM | 1.95 | –
FT3469 [12], 3000 nM | 2.95 | –
